Reference: ChEMBL document CHEMBL1201862, “PubChem BioAssay data set” (2004)
Calls of active or inactive are those of the source.

Legend:
cells [1] = assay type: functional, cell-based
cells [2] = assay type: functional, cell-based; remark: listed apart in the source
[3] = biological target: T1, Ubiquitin-conjugating enzyme E2 N (Homo sapiens, UniProt P61088); assay type: functional;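 note: Dose-response confirmation in a TR-FRET assay detecting UBC13-driven polyubiquitin chain formation, inhibition measured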
T1 sequence (P61088 whole entry): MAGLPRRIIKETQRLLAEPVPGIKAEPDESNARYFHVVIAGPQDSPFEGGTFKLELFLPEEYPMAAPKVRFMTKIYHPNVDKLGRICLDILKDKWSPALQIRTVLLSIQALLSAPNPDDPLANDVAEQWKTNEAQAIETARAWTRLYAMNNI

[4] = non-specific 3'UTR reporter inhibition in Clone20-Shn3RL – cell-based, Renilla luciferase, cherry-picked, counter-screen for Shn3 inhibitor project, dose response (AID 624133); assay type: functional
[5] = reduction of Shn3 3'UTR-driven luciferase in osteoblasts – cell-based, Clone20 osteoblasts, firefly luciferase, cherry-picked, dose response (AID 624132); assay type: functional;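 note: firefly luciferase luminescence from reporter carrying the Shn3 3'UTR in osteoblasts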
Paired box protein Pax-8 = Paired box protein Pax-8 (Homo sapiens, UniProt Q06710); test: PAX8 transcriptional activity inhibition in RMG-I – RMG-I cells, luciferase, cherry-pick, dose response (AID 687027); assay type: functional, cell-based;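 note: luciferase reporter driven by Pax8 target thyroperoxidase promoter measured by SteadyGlo luminescence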
[6] = blockers of HIV-1 envelope-mediated cell-cell fusion – cherry-pick, dose response (AID 652057); assay type: functional, cell-based
[7] = off-target signal loss in HeLa-CEM21 co-culture – HeLa F-luc CTL cells, cherry-picked, counter-screen for HIV-1 Env fusion inhibitor project, dose response (AID 652040); assay type: functional, cell-based;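 note: potency for signal decrease marking cytotoxic or nonspecific inhibition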
[8] = HIV-1 AD8 envelope cell-cell fusion blockers – cherry-pick, dose response (AID 652062); assay type: functional, cell-based;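 note: luciferase signal from cell-cell fusion driven by HIV-1 clade B AD8 Env; potency is for inhibitors of fusion seen as a drop in luminescence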
INS1 = test: INS-1E survival protection against cytokine death – cell-based, luminescence, retest, dose response (AID 449756); assay type: functional; settings: Rattus norvegicus;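 note: cell death triggered by IL-1 beta plus TNF-alpha plus IFN-gamma mixture; protective hits raise ATP signal compared with cytokine alone wells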
[9] = biological target: T2, Heat shock factor protein 1 (Mus musculus, UniProt P38532); test: enhancement of HSF1-driven luciferase signal – cell-based, NIH3T3, luminescence, dose retest, confirmation (AID 435004); assay type: functional;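 note: stress induced by proteasome inhibitor MG132 added 30 min after compound; luciferase reporter driven by HSF1 response element in NIH3T3 cells; actives raise luminescence as potentiators of the MG132 stress response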
T2 sequence (P38532 whole entry): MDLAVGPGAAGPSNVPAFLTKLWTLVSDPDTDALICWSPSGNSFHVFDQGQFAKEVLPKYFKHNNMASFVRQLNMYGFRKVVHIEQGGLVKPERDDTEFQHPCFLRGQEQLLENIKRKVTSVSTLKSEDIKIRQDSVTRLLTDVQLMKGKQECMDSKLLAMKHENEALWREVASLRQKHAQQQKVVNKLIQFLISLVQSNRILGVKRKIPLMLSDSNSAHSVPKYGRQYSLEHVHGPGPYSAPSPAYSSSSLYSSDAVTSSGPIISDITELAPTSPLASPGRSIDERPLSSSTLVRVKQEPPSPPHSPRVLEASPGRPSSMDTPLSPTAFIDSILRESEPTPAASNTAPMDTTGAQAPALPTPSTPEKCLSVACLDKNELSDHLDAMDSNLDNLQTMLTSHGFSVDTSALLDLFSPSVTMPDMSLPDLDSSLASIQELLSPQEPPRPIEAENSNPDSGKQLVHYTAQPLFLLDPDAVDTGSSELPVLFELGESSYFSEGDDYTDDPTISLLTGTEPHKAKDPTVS

Protein RecA = biological target: T3, Protein RecA (Mycobacterium tuberculosis, UniProt P9WHJ3); test: Fluorescence Cell-Free Homogeneous Dose Retest to Identify Inhibitors of RecA-Intein Splicing Activity. [Related pubchem assays (depositor defined):AID2097, AID2223, AID489010, AID492950]; assay type: functional
T3 sequence (P9WHJ3 whole entry): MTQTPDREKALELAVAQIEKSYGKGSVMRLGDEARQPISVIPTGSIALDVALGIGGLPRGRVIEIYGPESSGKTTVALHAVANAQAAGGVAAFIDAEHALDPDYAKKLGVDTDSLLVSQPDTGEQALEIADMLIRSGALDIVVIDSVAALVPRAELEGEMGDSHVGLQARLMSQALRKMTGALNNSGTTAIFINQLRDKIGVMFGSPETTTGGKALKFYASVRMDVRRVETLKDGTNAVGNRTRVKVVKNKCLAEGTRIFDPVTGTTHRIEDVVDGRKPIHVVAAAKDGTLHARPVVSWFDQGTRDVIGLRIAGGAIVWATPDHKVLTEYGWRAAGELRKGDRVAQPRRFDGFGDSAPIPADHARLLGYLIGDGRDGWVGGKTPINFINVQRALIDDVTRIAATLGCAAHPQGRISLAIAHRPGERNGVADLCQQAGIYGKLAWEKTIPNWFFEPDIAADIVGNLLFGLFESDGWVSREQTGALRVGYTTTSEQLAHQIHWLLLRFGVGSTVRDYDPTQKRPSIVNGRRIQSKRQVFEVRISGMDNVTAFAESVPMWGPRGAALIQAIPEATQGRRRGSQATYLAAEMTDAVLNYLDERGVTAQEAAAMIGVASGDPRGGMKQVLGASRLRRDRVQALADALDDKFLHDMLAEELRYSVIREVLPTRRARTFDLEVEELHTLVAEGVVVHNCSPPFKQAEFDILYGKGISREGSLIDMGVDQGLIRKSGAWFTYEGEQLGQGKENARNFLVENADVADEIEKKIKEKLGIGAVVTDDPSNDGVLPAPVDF

[10] = biological target: T4, Replicative DNA helicase DnaB (Mycobacterium tuberculosis, UniProt P9WMR3); test: DnaB intein splicing inhibitors, dose response, biochemical, cell-free fluorescence (AID 449749); assay type: functional
T4 sequence (P9WMR3 whole entry): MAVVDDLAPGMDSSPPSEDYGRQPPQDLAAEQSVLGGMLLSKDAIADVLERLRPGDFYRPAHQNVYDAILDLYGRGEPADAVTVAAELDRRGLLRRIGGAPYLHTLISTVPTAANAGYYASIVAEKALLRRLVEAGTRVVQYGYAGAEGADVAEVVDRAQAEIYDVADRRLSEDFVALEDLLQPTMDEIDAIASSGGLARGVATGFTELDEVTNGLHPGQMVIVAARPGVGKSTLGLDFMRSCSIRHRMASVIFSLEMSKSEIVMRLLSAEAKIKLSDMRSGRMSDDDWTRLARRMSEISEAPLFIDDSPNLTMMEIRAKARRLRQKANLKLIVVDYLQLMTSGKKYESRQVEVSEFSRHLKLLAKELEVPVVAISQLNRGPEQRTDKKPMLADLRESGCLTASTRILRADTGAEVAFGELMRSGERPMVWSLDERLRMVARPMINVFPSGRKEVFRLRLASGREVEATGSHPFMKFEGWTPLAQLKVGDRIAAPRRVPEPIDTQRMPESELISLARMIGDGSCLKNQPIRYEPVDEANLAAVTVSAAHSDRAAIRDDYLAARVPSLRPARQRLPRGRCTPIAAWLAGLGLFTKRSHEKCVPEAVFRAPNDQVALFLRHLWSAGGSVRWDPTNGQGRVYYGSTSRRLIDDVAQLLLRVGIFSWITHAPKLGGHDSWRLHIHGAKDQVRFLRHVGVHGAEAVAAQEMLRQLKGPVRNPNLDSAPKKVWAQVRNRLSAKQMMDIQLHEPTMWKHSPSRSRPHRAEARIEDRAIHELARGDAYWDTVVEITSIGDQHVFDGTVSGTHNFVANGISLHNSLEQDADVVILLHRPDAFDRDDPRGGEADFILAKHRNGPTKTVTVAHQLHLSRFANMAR

[11] = viability of HCT116 lacking mutant beta-catenin – cell-based, human colon tumor, dose response (AID 1045); assay type: functional;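 note: HCT116 colon tumor cells with beta catenin knocked out; cells exposed to compound for 60 hours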
[12] = viability of PTEN-deleted HCT116 cells – cell-based, HCT116 PTEN knockout, dose response (AID 1047); assay type: functional;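 note: HCT116 colon tumor cells with PTEN knocked out; cells exposed to compound for 60 hours before readout; potency for loss of cell viability measured by luminescence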
P388 = test: cells; assay type: functional; settings: Mus musculus;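 note: compound exposure lasted 48 hours before growth was measured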
SN12K1 = test: cells; assay type: functional; settings: Homo sapiens
[13] = biological target: T5, Microphthalmia-associated transcription factor (Homo sapiens, UniProt O75030); test: reducers of TRPM1 reporter luminescence, concentration series – cell-based, SK-MEL-5, cherry-picked, set 3, MITF inhibitor project, dose response (AID 493073); assay type: functional;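 note: SK-MEL-5 melanoma cells with luciferase driven by the MITF target TRPM1 promoter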
T5 sequence (O75030 whole entry): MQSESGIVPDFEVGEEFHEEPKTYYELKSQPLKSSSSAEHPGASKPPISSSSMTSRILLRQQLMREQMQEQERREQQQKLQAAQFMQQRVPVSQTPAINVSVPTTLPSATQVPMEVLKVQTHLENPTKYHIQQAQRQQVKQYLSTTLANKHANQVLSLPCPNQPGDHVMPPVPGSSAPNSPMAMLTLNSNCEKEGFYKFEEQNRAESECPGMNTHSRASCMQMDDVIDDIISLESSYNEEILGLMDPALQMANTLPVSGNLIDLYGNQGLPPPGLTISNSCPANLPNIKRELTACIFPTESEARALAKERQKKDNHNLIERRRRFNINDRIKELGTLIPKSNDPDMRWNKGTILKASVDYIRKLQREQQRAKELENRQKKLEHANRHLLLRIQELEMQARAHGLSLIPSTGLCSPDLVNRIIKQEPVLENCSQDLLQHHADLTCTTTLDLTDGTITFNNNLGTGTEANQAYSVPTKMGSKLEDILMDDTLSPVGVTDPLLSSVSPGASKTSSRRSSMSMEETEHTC

[14] = biological target: Heat shock protein HSP 90-alpha (Homo sapiens, UniProt P07900); assay type: functional, organism-based

Chain of Paired box protein Pax-8 (Q06710 whole entry, the tested form may be a part): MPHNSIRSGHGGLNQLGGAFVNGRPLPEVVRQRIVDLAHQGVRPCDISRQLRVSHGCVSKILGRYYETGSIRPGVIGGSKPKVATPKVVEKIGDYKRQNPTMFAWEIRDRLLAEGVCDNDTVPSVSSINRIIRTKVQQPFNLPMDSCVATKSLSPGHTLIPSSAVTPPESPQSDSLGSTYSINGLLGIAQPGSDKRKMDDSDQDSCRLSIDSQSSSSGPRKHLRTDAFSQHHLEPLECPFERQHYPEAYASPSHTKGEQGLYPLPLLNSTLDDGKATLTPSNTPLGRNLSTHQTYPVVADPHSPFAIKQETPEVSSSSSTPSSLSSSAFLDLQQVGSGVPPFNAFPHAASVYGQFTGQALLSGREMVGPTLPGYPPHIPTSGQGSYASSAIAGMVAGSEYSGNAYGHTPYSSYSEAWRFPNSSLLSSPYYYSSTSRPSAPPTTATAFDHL

COc1ccc2[nH]c(-c3cccc(N)c3)nc2c1
EC50 (cells [1]): > 350 µM (not active)
EC50 (cells [2]): 6.92 µM (active)

CC(C(=O)NC1CCCC1)N(C(=O)c1snc(C(N)=O)c1N)c1ccc2c(c1)OCCO2 (stereo unspecified)
IC50 [3]: > 20 µM (inactive)

COC(=O)C1=C(c2ccc(F)cc2OCc2ccccc2)C[C@@H]2CC[C@H]1N2C(=O)NC1Cc2ccccc2C1
AC50 [4]: 29.3 µM (active)
AC50 [5]: 8 µM (active)
AC50 (Paired box protein Pax-8): 9.27 µM (active)

CCOC(=O)c1cccc(NS(=O)(=O)c2ccc(NC(C)=O)cc2)c1
AC50 [6]: 4.26 µM (active)
AC50 [7]: 39.7 µM (active)
AC50 [8]: 10 µM (active)

CC(C)OCCCN=C(S)N1CCC(C(=O)c2ccc(Cl)cc2)CC1
AC50 (INS1): 36.9 µM (active)

Cc1cc(C(=O)c2ccc(C(C)(C)C)cc2)c(NC(=O)CCl)s1
EC50 [9]: 7.73 µM (active)
EC50 (Protein RecA): 2.97 µM (active)
AC50 [10]: 7.58 µM (active)
EC50 [11]: 8.47 µM (active)
EC50 [12]: 9.12 µM (active)

COc1ccc(C)c2sc(N(CCCN(C)C)C(=O)c3ccc(S(=O)(=O)N(C)C)cc3)nc12
IC50 [3]: > 20 µM (inactive)

CC[C@@H](C)[C@@H]1CN([C@@H](C)CN2CCC[C@H]2CN2C(N)=NC[C@@H]2Cc2ccccc2)C(=N)N1CCc1ccc(Cl)c(Cl)c1
IC50 [3]: > 20 µM (inactive)

Nc1c(/N=N/c2ccc(-c3ccc(/N=N/c4c(O)ccc5cc(S(=O)(=O)O)cc(S(=O)(=O)O)c45)cc3)cc2)c(S(=O)(=O)O)cc2cc(S(=O)(=O)O)c(/N=N/c3ccccc3)c(O)c12
GI50 (P388): > 100 µM (inactive)
GI50 (SN12K1): > 100 µM (inactive)

COC(=O)c1cc(=O)n(CCc2ccccc2F)/c(=N/c2ccc(F)c(Cl)c2)s1
AC50 (INS1): 8.13 µM (active)

COc1ccc(NC(=O)CCC(=O)N/N=C/c2ccc([N+](=O)[O-])s2)cc1
AC50 [13]: 7.62 µM (active)
AC50 [14]: 2.7 µM (active)
EC50 [11]: 11.3 µM (active)
EC50 [12]: 11.5 µM (active)

N/C(S)=N/N=C/c1ccc(O)cn1
GI50 (P388): 1.95 µM (inactive)
GI50 (SN12K1): 3.61 µM (inactive)
